Blank lines part the entries; values can stand above or below the molecule they belong to.
Columns and labels:
Gal-4NL [1] = molecular target: T1, Gal-4NL (Homo sapiens, UniProt P56470); assay: direct ELISA, binding of Gal-4NL to immobilized ASF; conditions: read-out: apparent KD
T1 construct: designated as Gal-4NL (aa 1-160), and Gal-4CL (aa 169-323), respectively; made in house; host or cells: E. coli Rosetta (DE3) pLysS
T1 sequence (P56470 1-160): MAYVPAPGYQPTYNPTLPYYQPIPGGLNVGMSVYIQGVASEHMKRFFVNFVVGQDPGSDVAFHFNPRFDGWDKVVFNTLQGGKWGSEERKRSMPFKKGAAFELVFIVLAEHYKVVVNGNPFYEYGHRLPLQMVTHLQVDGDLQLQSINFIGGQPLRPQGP
Method: (§1) To design the ELISA method, we first examined the direct binding of the whole Gal-4, Gal-4NL, and Gal-4-CL to standard glycoprotein asialofetuin (ASF, MW 48.4 kDa), which carries up to nine LacNAc epitopes. The ASF was immobilized by hydrophobic interaction in microtiter-plate wells, and the binding of increasing concentrations of Gal-4 proteins was quantified by colorimetric immunodetection using horseradish peroxidase conjugated to an anti-His-tag antibody. The apparent dissociation constants (KD) were calculated from the non-linear regression of the binding curves (Figure 3). […] The Gal-4 proteins were incubated with increasing concentrations of the respective inhibitors, and the concentration-dependent inhibition of the binding to the immobilized ASF was quantified using spectrophotometric colorimetric immunodetection (HRP-conjugated anti-His-tag antibody). The respective half-maximal inhibition constants (IC50) were calculated from the non-linear regression of the sigmoidal curves (Figure 3), and they are shown in Table 2 and Table 3.
(§2) The apparent dissociation constant (KD) of binding of the whole Gal-4 or its subunits to ASF was determined using direct enzyme-linked immunosorbent assay (ELISA), with washing steps as specified above. […] Residual galectins bound to the wells were labeled with anti-His-antibody conjugated with HRP, and evaluated as above.

Gal-4 [2] = molecular target: T2, Gal-4 (Homo sapiens, UniProt P56470); assay: direct ELISA, binding of whole Gal-4 to immobilized ASF; conditions: read-out: apparent KD
T2 construct: made in house; host or cells: Escherichia coli Rosetta (DE3) pLysS
T2 sequence (P56470 1-323): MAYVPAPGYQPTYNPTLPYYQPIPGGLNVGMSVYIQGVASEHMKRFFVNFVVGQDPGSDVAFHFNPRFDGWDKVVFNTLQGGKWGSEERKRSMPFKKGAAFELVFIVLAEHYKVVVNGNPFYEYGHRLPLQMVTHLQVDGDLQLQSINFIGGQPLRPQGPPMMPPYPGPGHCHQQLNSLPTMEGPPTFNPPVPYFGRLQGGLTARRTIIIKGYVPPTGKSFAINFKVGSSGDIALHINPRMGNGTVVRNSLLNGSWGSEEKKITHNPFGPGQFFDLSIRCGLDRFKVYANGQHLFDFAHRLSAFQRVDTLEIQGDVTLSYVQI
Method: as §1, §2

Gal-4CL [3] = molecular target: T3, Gal-4CL (Homo sapiens, UniProt P56470); assay: direct ELISA, binding of Gal-4CL to immobilized ASF; conditions: read-out: apparent KD
T3 construct: designated as Gal-4NL (aa 1-160), and Gal-4CL (aa 169-323), respectively; made in house; host or cells: E. coli Rosetta (DE3) pLysS
T3 sequence (P56470 169-323): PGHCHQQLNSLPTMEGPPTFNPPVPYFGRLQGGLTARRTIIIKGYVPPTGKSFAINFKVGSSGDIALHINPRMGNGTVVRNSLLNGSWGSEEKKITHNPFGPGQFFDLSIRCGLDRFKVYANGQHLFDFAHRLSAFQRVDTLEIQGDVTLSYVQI
Method: as §1, §2

Gal-4 [4] = molecular target: T2, Gal-4; assay: competitive ELISA, inhibition of binding of whole Gal-4 to immobilized ASF
Method: (§3) To design the ELISA method, we first examined the direct binding of the whole Gal-4, Gal-4NL, and Gal-4-CL to standard glycoprotein asialofetuin (ASF, MW 48.4 kDa), which carries up to nine LacNAc epitopes. The ASF was immobilized by hydrophobic interaction in microtiter-plate wells, and the binding of increasing concentrations of Gal-4 proteins was quantified by colorimetric immunodetection using horseradish peroxidase conjugated to an anti-His-tag antibody. The apparent dissociation constants (KD) were calculated from the non-linear regression of the binding curves (Figure 3). […] While for the Gal-4 ELISA measurement we used the concentration of Gal-4 of 2.5 μM, for both subunits, it was 25 μM. […] The Gal-4 proteins were incubated with increasing concentrations of the respective inhibitors, and the concentration-dependent inhibition of the binding to the immobilized ASF was quantified using spectrophotometric colorimetric immunodetection (HRP-conjugated anti-His-tag antibody). The respective half-maximal inhibition constants (IC50) were calculated from the non-linear regression of the sigmoidal curves (Figure 3), and they are shown in Table 2 and Table 3.
(§4) Each incubation step was followed by washing the wells with 3 × 250 µL phosphate-buffered saline (PBS) containing 0.05% Tween® 20. In total, 0.1 µM ASF in PBS (50 µL/well) was coated onto microtiter plates (Nunc Immuno Sorb, ThermoFisher Scientific, Waltham, MA, USA) overnight. After blocking the wells with 2 mg/mL bovine serum albumin (BSA) in PBS buffer (250 µL/well, 1 h), serial dilutions of the inhibitors in PBS buffer containing 2 mM EDTA (EPBS) were incubated with Gal-4 (2.5 µM final dimer concentration) or its subunits, Gal-4CL and Gal-4NL (25 µM final monomer concentration) for 2 h (50 µL/well). The residual bound galectin was labeled with an anti-His-antibody conjugated with horseradish peroxidase (HRP) (Santa Cruz Biotechnology, Heidelberg, Germany; 1:999 dilution in PBS). The colorimetric reaction with TMB One substrate solution (Kem-En-Tec, Taastrup, Denmark; 50 µL/well) was stopped with 3 M hydrochloric acid (HCl) (50 µL/well) and quantified spectrophotometrically at 450 nm (Sunrise; Tecan Group Ltd., Männedorf, Switzerland). The values of half-maximal inhibitory concentrations (IC50) were calculated by non-linear regression (dose–response inhibition-variable slope) of sigmoidal curves from a minimum of three independent experiments using GraphPad Prism 8.4.3 (GraphPad Software, San Diego, CA, USA).

Gal-4NL [5] = molecular target: Gal-4NL; set-up: method as in PMID 33968903; conditions: ITC; cited from earlier work
Gal-4CL [6] = molecular target: T3, Gal-4CL; assay: competitive ELISA, inhibition of binding of Gal-4CL subunit to immobilized ASF
Method: as §3, §4

Gal-4N = molecular target: Gal-4N; set-up: method as in PMID 26828567, PMID 26077389; conditions: fluorescence anisotropy, read-out: binding constant; cited from earlier work
Gal-4C = molecular target: Gal-4C; set-up: method as in PMID 26828567, PMID 26077389; conditions: fluorescence anisotropy, read-out: binding constant; cited from earlier work
Gal-4NL [7] = molecular target: T1, Gal-4NL; assay: competitive ELISA, inhibition of binding of Gal-4NL subunit to immobilized ASF
Method: as §3, §4

[8] = molecular target: T4, asialofetuin (standard glycoprotein, MW 48.4 kDa) (UniProt P12763 19-359, glycoprotein without sialic acid; carries up to nine LacNAc epitopes); assay: ELISA; direct ELISA; ASF (0.1 µM in PBS) coated on microtiter plate overnight, blocked with BSA; increasing concentrations of Gal-4 or its subunits, 2 h; detected with HRP-conjugated anti-His antibody; apparent KD from non-linear regression; conditions: both partners purified
T4 construct: Asialofetuin (desialylated fetuin), MW 48.4 kDa; Commercial asialofetuin is commonly from fetal calf serum; also called ASF
T4 sequence (looked up): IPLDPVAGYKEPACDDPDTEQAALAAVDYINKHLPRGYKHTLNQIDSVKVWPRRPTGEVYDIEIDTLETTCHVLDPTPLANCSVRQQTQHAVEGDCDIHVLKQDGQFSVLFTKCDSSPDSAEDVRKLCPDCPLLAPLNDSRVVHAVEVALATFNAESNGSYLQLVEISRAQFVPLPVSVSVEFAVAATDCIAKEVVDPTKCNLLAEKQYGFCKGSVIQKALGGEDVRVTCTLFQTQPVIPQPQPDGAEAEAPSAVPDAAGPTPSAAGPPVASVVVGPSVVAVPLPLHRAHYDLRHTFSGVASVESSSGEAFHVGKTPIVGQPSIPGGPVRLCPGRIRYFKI

[9] = molecular target: T5, lactosyl-decorated neo-glycoprotein 12 (human serum albumin carrier) (human, UniProt P02768 25-609, 9.6 lactosyl residues (MALDI-TOF, 72,151 Da) attached by a thiourea linker and diethyl-squarate linkage; sites not stated); assay: BLI; His-tagged galectins (2 µg/mL, PBS with 0.05% Tween-20) immobilised on Ni-NTA biosensors; serially diluted neo-glycoprotein 12 in solution; 25 °C, 800 rpm; steady-state analysis; conditions: both partners purified
T5 construct: Human serum albumin, carrier of the synthetic lactosyl ligands; source: HSA coupled with squarate monoamide ester 11 (tetraborate buffer pH 9.0, 72 h), washed with water by ultracentrifugation
T5 sequence (P02768 25-609): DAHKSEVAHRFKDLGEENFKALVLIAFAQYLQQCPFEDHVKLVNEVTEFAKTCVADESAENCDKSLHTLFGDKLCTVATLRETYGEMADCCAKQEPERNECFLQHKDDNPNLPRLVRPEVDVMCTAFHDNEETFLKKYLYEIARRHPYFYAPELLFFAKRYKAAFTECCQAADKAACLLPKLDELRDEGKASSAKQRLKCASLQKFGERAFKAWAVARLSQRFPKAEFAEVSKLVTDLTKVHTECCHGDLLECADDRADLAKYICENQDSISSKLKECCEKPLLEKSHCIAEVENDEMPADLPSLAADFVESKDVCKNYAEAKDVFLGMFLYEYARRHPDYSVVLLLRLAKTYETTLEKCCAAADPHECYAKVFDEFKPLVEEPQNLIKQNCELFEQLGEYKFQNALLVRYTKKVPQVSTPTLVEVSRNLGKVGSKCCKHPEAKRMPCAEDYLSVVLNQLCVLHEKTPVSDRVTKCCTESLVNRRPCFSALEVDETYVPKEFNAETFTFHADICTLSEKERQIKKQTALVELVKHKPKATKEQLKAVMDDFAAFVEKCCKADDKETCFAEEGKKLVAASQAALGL

[10] = molecular target: the molecule itself; assay: dynamic light scattering; Gal-4 and its subunits at 25 µM, 25 °C, Zetasizer Nano S90; size distribution by intensity and by volume

Molecule: asialofetuin [ASF]
- Kd (Gal-4NL [1]): 38 ± 3 µM
- Kd (Gal-4 [2]): 3.3 ± 1.1 µM
- Kd (Gal-4CL [3]): 19 ± 2 µM

Molecule: CC(=O)N[C@H]1[C@@H](O[C@H]2[C@@H](O)[C@@H](CO)O[C@@H](O[C@H]3[C@H](O)[C@@H](O)C(O)O[C@@H]3CO)[C@@H]2O[C@@H]2O[C@@H](C)[C@@H](O)[C@@H](O)[C@@H]2O)O[C@H](CO)[C@H](O)[C@@H]1O (some centres unmarked) [blood-group antigen A (5), blood-group antigen A type 6]
- IC50 (Gal-4 [4]; competitive ELISA, Gal-4 2.5 µM, immobilized ASF): 50 ± 20 µM
- rp, relative potency (IC50 (lactose)/IC50 (ligand)) (Gal-4 [4]; whole Gal-4): 48
- Kd (Gal-4NL [5]): 86 µM
- rp Gal-4CL, relative potency (IC50 (lactose)/IC50 (ligand)) (Gal-4CL [6]; Gal-4CL): 320
- IC50 (Gal-4CL [6]; competitive ELISA, Gal-4CL 25 µM, immobilized ASF): 27 ± 5 µM
- Kd (Gal-4N): 164 µM
- Kd (Gal-4C): 75 µM
- rp Gal-4NL, relative potency (IC50 (lactose)/IC50 (ligand)) (Gal-4NL [7]; Gal-4NL): 130
- fold stronger inhibitor of Gal-4NL than blood-group antigen B (Gal-4NL [7]; Gal-4NL, ELISA): 12 fold
- IC50 (Gal-4NL [7]; competitive ELISA, Gal-4NL 25 µM, immobilized ASF): 22 ± 1 µM

Now from value to molecule, other results behind:

- Kd [8]: 38 ± 3 µM
- Kd [9]: 1000 ± 200 nM
B1: N-terminal subunit of Gal-4 with 10 linker residues (Gal-4NL, aa 1-160) (domain or fragment, human, UniProt P56470 1-160, looked up)
chain: MAYVPAPGYQPTYNPTLPYYQPIPGGLNVGMSVYIQGVASEHMKRFFVNFVVGQDPGSDVAFHFNPRFDGWDKVVFNTLQGGKWGSEERKRSMPFKKGAAFELVFIVLAEHYKVVVNGNPFYEYGHRLPLQMVTHLQVDGDLQLQSINFIGGQPLRPQGP
notes: Galectin-4, human, N-terminal CRD (aa 1-150) with 10 further residues of the inter-domain linker at the C-terminus (aa 1-160); made by PCR from the Gal-4 plasmid, NdeI/XhoI; not shown: His6, N-terminal, kept

- Kd [8]: 19 ± 2 µM
B2: C-terminal subunit of Gal-4 with 10 linker residues (Gal-4CL, aa 169-323) (domain or fragment, human, UniProt P56470 169-323, looked up)
chain: PGHCHQQLNSLPTMEGPPTFNPPVPYFGRLQGGLTARRTIIIKGYVPPTGKSFAINFKVGSSGDIALHINPRMGNGTVVRNSLLNGSWGSEEKKITHNPFGPGQFFDLSIRCGLDRFKVYANGQHLFDFAHRLSAFQRVDTLEIQGDVTLSYVQI
notes: Galectin-4, human, C-terminal CRD (aa 179-323) with 10 further residues of the inter-domain linker at the N-terminus (aa 169-323); made by PCR from the Gal-4 plasmid, NdeI/XhoI; not shown: His6, N-terminal, kept
- binding result [10]: binds

— article PMC10223884, “Oligosaccharide Ligands of Galectin-4 and Its Subunits: Multivalency Scores Highly” (Molecules, 2023)
